From patent US11478460B2, “Diaryl substituted 6,5-fused ring compounds as C5aR inhibitors” (CHEMOCENTRYX, INC., priority 2017, dated 2022)

The molecules below were run against C5aR (Homo sapiens (Human), UniProt P21730) (assay: Chemotaxis assay using U937 cells (C5aR mediated migration)). Settings: read-out: Mig IC50.
Type: cell-based
Outline: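 Migration toward 0.03 nM C5a, mixed with varying compound in the lower chamber (HBSS with 1% FBS), was measured over 1.5 h at 37° C through 5 μm filters. Upper chamber held 100,000 U937 cells treated overnight with 0.5 mM cAMP; migrated cells quantified by counts or CyQuant for IC50, SDF-1α as specificity control.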

Chain of C5aR (P21730 whole entry): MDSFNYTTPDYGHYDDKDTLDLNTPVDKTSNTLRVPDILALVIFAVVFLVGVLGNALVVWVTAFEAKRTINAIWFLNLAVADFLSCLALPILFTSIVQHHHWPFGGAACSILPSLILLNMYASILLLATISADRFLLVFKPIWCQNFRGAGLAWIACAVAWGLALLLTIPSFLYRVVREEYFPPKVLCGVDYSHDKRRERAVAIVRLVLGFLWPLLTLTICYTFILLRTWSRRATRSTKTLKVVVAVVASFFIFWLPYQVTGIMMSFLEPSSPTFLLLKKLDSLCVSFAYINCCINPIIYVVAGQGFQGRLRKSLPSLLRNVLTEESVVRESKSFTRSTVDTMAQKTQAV

`CCC(C)(C)N1CCc2nn(-c3c(C)cccc3OCC(C)C)c(-c3ccc(NC(N)=O)c(F)c3)c2C1` [Example 1.230] and `Cc1cccc(OCC(C)C)c1-n1nc2c(c1-c1ccc(NC(N)=O)c(F)c1)CN(CC(C)(C)C)CC2` [Example 1.274] cannot be ordered by IC50: 5 to 50 nM for the first, at most 5 nM for the second.

Compared with `CCCCN1CCc2nn(-c3c(C)cccc3OCC(C)C)c(-c3ccc(NC(N)=O)c(F)c3)c2C1` [Example 1.231], `CCN1CCc2nn(-c3c(C)cccc3OCC(C)C)c(-c3ccc(NC(N)=O)c(F)c3)c2C1` [Example 1.265] is higher in IC50: 5 to 50 nM for the first, 50 to 500 nM for the second. The first is the more potent here.

`Cc1cccc(OCC(C)C)c1-n1nc2c(c1-c1ccc(NC(N)=O)c(F)c1)CN(C(C)C1CCCCC1)CC2` (stereo not drawn) [Example 1.232] and `Cc1cccc(OCC(C)C)c1-n1nc2c(c1-c1ccc(NC(N)=O)c(F)c1)CN(C(C)C1CCCC1)CC2` (stereo not drawn) [Example 1.254] cannot be ordered by IC50: at most 5 nM for the first, at most 5 nM for the second.

First: Cc1cccc(OCC(C)C)c1-n1nc2c(c1-c1ccc(NC(N)=O)c(F)c1)CN(Cc1nccn1C)CC2 [Example 1.233]
Second: Cc1cccc(OCC(C)C)c1-n1nc2c(c1-c1ccc(NC(N)=O)c(F)c1)CN(Cc1nccs1)CC2 [Example 1.234]
The IC50 of the first is higher: over 500 nM for the first, 5 to 50 nM for the second. The second is the more potent here.

`CCc1cccc(CC)c1-n1nc2c(c1-c1ccc(NC(N)=O)c(F)c1)CN(C(C)CC)CC2` (stereo not drawn) [Example 1.235] and `CCc1cccc(CC)c1-n1nc2c(c1-c1ccc(NC(N)=O)c(F)c1)CN(CC(C)(C)C)CC2` [Example 1.253] cannot be ordered by IC50: 5 to 50 nM for the first, at most 5 nM for the second.

First: Cc1cccc(OCC(C)C)c1-n1nc2c(c1-c1ccc(NC(N)=O)c(F)c1)CN(S(=O)(=O)c1ccccc1)CC2 [Example 1.237]
Second: Cc1cccc(OCC(C)C)c1-n1nc2c(c1-c1ccc(NC(N)=O)c(F)c1)CN(C(C)C)CC2 [Example 1.264]
The IC50 of the first is lower: 5 to 50 nM for the first, 50 to 500 nM for the second.

`Cc1cccc(OCC(C)C)c1-n1nc2c(c1-c1ccc(NC(N)=O)c(F)c1)CN(C(=O)C1CCCC1)CC2` [Example 1.238] and `Cc1cccc(OCC(C)C)c1-n1nc2c(c1-c1ccc(NC(N)=O)c(F)c1)CN(CC1CCCC1)CC2` [Example 1.272] cannot be ordered by IC50: 5 to 50 nM for the first, at most 5 nM for the second.

`Cc1cccc(OCC(C)C)c1-n1nc2c(c1-c1ccc(NC(N)=O)c(F)c1)CN(C(C)CC(C)C)CC2` (stereo not drawn) [Example 1.239] and `Cc1cccc(OCC(C)C)c1-n1nc2c(c1-c1ccc(NC(N)=O)c(F)c1)CN([C@@H](C)C(C)C)CC2` [Example 1.257] cannot be ordered by IC50: at most 5 nM for the first, at most 5 nM for the second.

`Cc1cnc(N2CCc3nn(-c4c(C)cccc4OCC(C)C)c(-c4ccc(NC(N)=O)c(F)c4)c3C2)c(C(F)(F)F)c1` [Example 1.240] and `Cc1cccc(OCC(C)C)c1-n1nc2c(c1-c1ccc(NC(N)=O)c(F)c1)CN(c1ncc(C(F)(F)F)cc1Cl)CC2` [Example 1.276] cannot be ordered by IC50: at most 5 nM for the first, at most 5 nM for the second.

`Cc1cccc(OCC(C)C)c1-n1nc2c(c1-c1ccc(NC(N)=O)c(F)c1)CN(c1ccc(C(F)(F)F)cc1Cl)CC2` [Example 1.241] and `Cc1cccc(OCC(C)C)c1-n1nc2c(c1-c1ccc(NC(N)=O)c(Cl)c1)CN(c1ncc(C(F)(F)F)cc1F)CC2` [Example 1.275] cannot be ordered by IC50: at most 5 nM for the first, at most 5 nM for the second.

First: Cc1cccc(OCC(C)C)c1-n1nc2c(c1-c1cc(F)c(NC(N)=O)cc1F)CN(c1ncc(C(F)(F)F)cc1F)CC2 [Example 1.242]
Second: Cc1cccc(OCC(C)C)c1-n1nc2c(c1-c1cc(F)c(NC(N)=O)c(F)c1)CN(c1ncc(C(F)(F)F)cc1F)CC2 [Example 1.263]
The IC50 of the first is lower: at most 5 nM for the first, 50 to 500 nM for the second. The first is the more potent here.

`CCc1cccc(CC)c1-n1nc2c(c1-c1ccc(NC(N)=O)c(F)c1)CN(CC1CCCC1)CC2` [Example 1.243] and `Cc1cccc(OCC(C)C)c1-n1nc2c(c1-c1ccc(NC(N)=O)c(F)c1)CN(CC1CCCCC1)CC2` [Example 1.256] cannot be ordered by IC50: at most 5 nM for the first, at most 5 nM for the second.

`CCc1cccc(CC)c1-n1nc2c(c1-c1ccc(NC(N)=O)c(F)c1)CN(Cc1ccccc1C(F)(F)F)CC2` [Example 1.244] and `CCc1cccc(CC)c1-n1nc2c(c1-c1ccc(NC(N)=O)cc1)CN(Cc1ccc(Cl)cc1C(F)(F)F)CC2` [Example 1.278] cannot be ordered by IC50: at most 5 nM for the first, 5 to 50 nM for the second.

`Cc1cccc(OCC(C)C)c1-n1nc2c(c1-c1ccc(NC(N)=O)c(F)c1)CN(c1nccn3ccnc13)CC2` [Example 1.245] and `Cc1cccc(OCC(C)C)c1-n1nc2c(c1-c1ccc(NC(N)=O)c(F)c1)CN(c1ncc(F)cc1F)CC2` [Example 1.249] cannot be ordered by IC50: 5 to 50 nM for the first, at most 5 nM for the second.

`Cc1cccc(OCC(C)C)c1-n1nc2c(c1-c1ccc(NC(N)=O)c(F)c1)CN(c1nc(Cl)ns1)CC2` [Example 1.246] and `Cc1cccc(OCC(C)C)c1-n1nc2c(c1-c1ccc(NC(N)=O)c(F)c1)CN(c1ncc(Cl)cc1Cl)CC2` [Example 1.252] cannot be ordered by IC50: 5 to 50 nM for the first, at most 5 nM for the second.

`CCCC(C)N1CCc2nn(-c3c(C)cccc3OCC(C)C)c(-c3ccc(NC(N)=O)c(F)c3)c2C1` (stereo not drawn) [Example 1.247] and `CCC(C)N1CCc2nn(-c3c(C)cccc3OCC(C)C)c(-c3ccc(NC(N)=O)c(F)c3)c2C1` (stereo not drawn) [Example 1.259] cannot be ordered by IC50: at most 5 nM for the first, 5 to 50 nM for the second.

First: Cc1cccc(OCC(C)C)c1-n1nc2c(c1-c1ccc(NC(N)=O)c(F)c1)CN(CC1CCOC1)CC2 (stereo not drawn) [Example 1.248]
Second: Cc1cccc(OCC(C)C)c1-n1nc2c(c1-c1ccc(NC(N)=O)c(F)c1)CN(CC(C)C)CC2 [Example 1.273]
The IC50 of the first is higher: 50 to 500 nM for the first, 5 to 50 nM for the second. The second is the more potent here.

`Cc1cccc(OCC(C)C)c1-n1nc2c(c1-c1ccc(NC(N)=O)c(F)c1)CN(c1cc(F)cnc1F)CC2` [Example 1.251] and `COc1cc(-c2c3c(nn2-c2c(C)cccc2OCC(C)C)CCN(c2ncc(C(F)(F)F)cc2F)C3)ccc1NC(N)=O` [Example 1.267] fall in the same range of IC50: 5 to 50 nM for the first, 5 to 50 nM for the second.

`CCC(CC)N1CCc2nn(-c3c(C)cccc3OCC(C)C)c(-c3ccc(NC(N)=O)c(F)c3)c2C1` [Example 1.255] and `Cc1cccc(OCC(C)C)c1-n1nc2c(c1-c1ccc(NC(N)=O)c(F)c1)CN(CC(C)C(F)(F)F)CC2` (stereo not drawn) [Example 1.262] cannot be ordered by IC50: at most 5 nM for the first, at most 5 nM for the second.

`Cc1cccc(OCC(C)C)c1-n1nc2c(c1-c1ccc(NC(N)=O)cc1)CN(c1ncc(Cl)cc1Cl)CC2` [Example 1.258] and `Cc1cccc(OCC(C)C)c1-n1nc2c(c1-c1ccc(NC(N)=O)cc1)CN(c1ncccc1C(F)(F)F)CC2` [Example 1.271] fall in the same range of IC50: 5 to 50 nM for the first, 5 to 50 nM for the second.

`Cc1cccc(OCC(C)C)c1-n1nc2c(c1-c1ccc(NC(N)=O)cc1)CN(CC(C)(C)C)CC2(C)C` [Example 1.260] and `Cc1cccc(OCC(C)C)c1-n1nc2c(c1-c1ccc(NC(N)=O)cc1)CN(Cc1cc(Cl)ccc1Cl)CC2(C)C` [Example 1.261] cannot be ordered by IC50: over 500 nM for the first, over 500 nM for the second.

Compared with `Cc1cc(-c2c3c(nn2-c2c(C)cccc2OCC(C)C)CCN(c2ncc(C(F)(F)F)cc2F)C3)cc(C)c1NC(N)=O` [Example 1.266], `Cc1cc(NC(N)=O)ccc1-c1c2c(nn1-c1c(C)cccc1OCC(C)C)CCN(c1ncc(C(F)(F)F)cc1F)C2` [Example 1.268] is lower in IC50: over 500 nM for the first, 5 to 50 nM for the second.

`Cc1cccc(OCC(C)C)c1-n1nc2c(c1-c1ccc(NC(N)=O)cc1Cl)CN(c1ncc(C(F)(F)F)cc1F)CC2` [Example 1.269] and `Cc1cccc(OCC(C)C)c1-n1nc2c(c1-c1ccc(NC(N)=O)cc1F)CN(c1ncc(C(F)(F)F)cc1F)CC2` [Example 1.270] cannot be ordered by IC50: at most 5 nM for the first, at most 5 nM for the second.

`Cc1cccc(OCC(C)C)c1-n1nc2c(c1-c1ccc(NC(N)=O)c(F)c1)CN(Cc1ccc(C(F)(F)F)cc1C(F)(F)F)CC2` [Example 1.277] and `Cc1cccc(OCC(C)C)c1-n1nc2c(c1-c1ccc(N)c(Cl)c1)CN(c1ncc(C(F)(F)F)cc1F)CC2` [Example 1.279] cannot be ordered by IC50: at most 5 nM for the first, 5 to 50 nM for the second.
